According to patent US6083915A, “Method for treating liver cancer” (Biomeasure, Inc., priority 1991, dated 2000):

Tested on: M5123 hepatoma
Format: in vivo
Details: for % Test/Control / Tumor Weight (mg) Day 18: 100 μg/inj., s.c., b.i.d., q.d. 1-20; for % Test/Control: day 18; for Tumor Weight (mg) Day 18: mean ± s.e.m.
Source text: The M5123 hepatoma cells, obtained from Dr. H. P. Morris at the National Cancer Institute, were induced in the Buffalo strain of rats by ingestion of N-(2-fluorenyl-phthalamic acid) and established in serial transplantation. Implantation of the M5123 hepatoma cells in an immunodeficient athymic mouse reproducibly results in progressively growing, lethal tumor.
In contrast to the subrenal capsule assay, in the subcutaneous assay, tumor xenografts are implanted subcutaneously, rather than under the subrenal capsule, and treatment can be initiated at any selected time after the implantation.
In this assay, tumors were implanted subcutaneously in the right flank of athymic female mice and test compounds, BIM-26159, BIM-26187, BIM-26189, BIM-26218, BIM-26223 and BIN-26228, and control were injected subcutaneously in the left flank. For the structures of BIM-26159, BIM-26187, BIM-26189, see "Summary of the Invention" above. The structures of BIM-26223 and BIM-26228 are as follows:
Response of an implanted tumor to the treatment was monitored as follows. The length and width of the tumor were first measured using sensitive Vernier calipers. Tumor weight was then calculated based on the measurements as follows: [length (mm)×width (mm)^2 ]/2 mg. In addition to tumor size or weight, this assay system permits the parameter of "lag time", i.e., the effect of early treatment on the growth potential of tumors to reach a certain size.
In one experiment, thirty two mice were implanted subcutaneously with M5123 hepatoma xenografts on day 0 and randomized into four groups of eight animals per group. The bombesin analog BIM-26159 was administered at 250, 50, 10 μg per injection, S.C., b.i.d.,q.d. 1-18.
In another experiment, we tested the activity of five bombesin analogs, i.e., BIM-26187, BIM-26189, BIM-26218, BIM-26223 and BIM-26228, over a period of 18 days. Forty mice were implanted s.c. with M5123 hepatoma xenografts on day 0, and the randomized into ten animals in the control group and six animals per test group. All compounds were administered at 100 μg per injection, s.c., b.i.d., q.d. 1-18.

| Molecule | % Test/Control [%] | Tumor Weight (mg) Day 18 [mg] | effect on growth of the tumor cells (in words) (100 μg per injection, over 18 days) |
| --- | --- | --- | --- |
| CC(C)C[C@H](NC(=O)[C@H](CC(C)C)NC(=O)[C@H](Cc1c[nH]cn1)NC(=O)CNC(=O)[C@@H](NC(=O)[C@H](C)NC(=O)[C@H](Cc1c[nH]c2ccccc12)NC(=O)[C@H](CCC(N)=O)NC(=O)[C@H](N)Cc1ccccc1)C(C)C)C(N)=O [BIM-26187, D-Phe-Gln-Trp-Ala-Val-Gly-His-Leu-Leu-NH2] | 83 | 482.8 ± 175.0 | – |
| D-Phe-Gln-Trp-Ala-Val-Gly-CHxAla-Leu-NH2 [BIM-26228] | 115 | 667.2 ± 181.6 | slightly stimulated growth |
